Each compound was assayed on HSP-90 (heat shock protein 90) (assay: Determination of affinity for HSP-90 (elution from purine affinity column)).
Assay type: binding
Set-up: key: +++ stands for very high; ++ for high; + for moderate
Method: Affinity of test compounds for HSP-90 is determined as follows: Protein mixtures obtained from a variety of organ tissues (for example: spleen, liver and lung) are reversibly bound to a purine affinity column to capture purine-binding proteins, especially HSP-90. The purine affinity column is washed several times, and then eluted with 20 μM, 100 μM, and 500 μM of test compound. Compounds of Formula I elute HP-90 in a dose-dependent manner vs. a control elution using dimethylsulfoxide. The elution profile of Formula I compounds is determined by 1-dimensional SDS polyacrylamide gel electrophoresis. Gels are stained with a fluorescent stain such as sypro ruby (a highly sensitive fluorescent protein stain that can readily detect less than 1 fmol of total protein, i.e., less than 0.04 ng for a 40 kDa protein) or silver nitrate. The gels are imaged using a standard flat bed gel imager and the amount of protein estimated by densitometry. The percent of HSP-90 protein eluted from the column at each concentration is determined and IC50 values are calculated from these estimates.

Row | relative binding affinity to HSP-90 | SMILES
1 | +++ | Cn1nc(-c2ccc(C(N)=O)c(NC3CCOCC3)c2)c2c1C(=O)CC(C)(C)C2 [Compound 3, 2-(Tetrahydro-pyran-4-ylamino)-4-(1,5,5-trimethyl-7-oxo-4,5,6,7-tetrahydro-1H-indazol-3-yl)-benzamide]
2 | +++ | Cc1cc(=O)c2c(C)nn(-c3ccc(C(N)=O)c(NC4CCOCC4)c3)c2o1 [Compound 7, 4-(3,6-Dimethyl-4-oxo-4H-pyrano[2,3-c]pyrazol-1-yl)-2-(tetrahydro-pyran-4-ylamino)-benzamide]
3 | + | Cc1nn(-c2ccc(C(N)=O)c(NC3CCOCC3)c2)c2nc[nH]c(=O)c12 [Compound 9, 4-(3-Methyl-4-oxo-4,5-dihydro-pyrazolo[3,4-d]pyrimidin-1-yl)-2-(tetrahydro-pyran-4-ylamino)-benzamide]
4 | +++ | COc1ccc2ccn(-c3ccc(C#N)c(N[C@H]4CC[C@H](O)CC4)c3)c2c1 [Compound 19, 2-(4-Hydroxycyclohexylamino)-4-(6-methoxyindol-1-yl)benzonitrile]
5 | +++ | COc1cccc2c1ccn2-c1ccc(C#N)c(N[C@H]2CC[C@H](O)CC2)c1 [Compound 21, 2-(4-Hydroxycyclohexylamino)-4-(4-methoxyindol-1-yl)benzonitrile]
6 | ++ | CC(=O)c1ccc(-c2ccc(C#N)c(NC3CCC(O)CC3)c2)s1 (centres unmarked) [Compound 23, 4-(5-Acetyl-thiophen-2-yl)-2-(4-hydroxy-cyclohexylamino)-benzonitrile]
7 | + | COc1cc2ccn(-c3ccc(C#N)c(Nc4ccccc4)c3)c2cc1OC [Compound 34, 4-(5,6-dimethoxy-1H-indol-1-yl)-2-(phenylamino)benzonitrile]
8 | +++ | Cc1nc(-c2ccc(C#N)c(NC3CCOCC3)c2)n2c1C(=O)CCC2 [Compound 35, 4-(1-methyl-8-oxo-5,6,7,8-tetrahydroimidazo[1,5-a]pyridin-3-yl)-2-(tetrahydro-2H-pyran-4-ylamino)benzonitrile]
9 | ++ | NC(=O)c1ccc(-n2ccc3ccccc32)c(Cl)c1 [Compound 46, 3-chloro-4-(1H-indol-1-yl)benzamide]
10 | ++ | COCC(C)Nc1cc(-n2cc(C)c(C(C)=O)c2C)ccc1C(N)=O (centres unmarked) [Compound 47, 4-(3-acetyl-2,4-dimethyl-1H-pyrrol-1-yl)-2-(1-methoxypropan-2-ylamino)benzamide]
11 | +++ | N#Cc1ccc(-c2ccc3n2CCCC3=O)cc1NC1CCC(O)CC1 (centres unmarked) [Compound 51, 2-(4-hydroxycyclohexylamino)-4-(8-oxo-5,6,7,8-tetrahydroindolizin-3-yl)benzonitrile]
